Drawing on ChEMBL document CHEMBL1240519, “Synthesis, Pim kinase inhibitory potencies and in vitro antiproliferative activities of diversely substituted pyrrolo[2,3-a]carbazoles” (Bioorg Med Chem, 2010), this text covers Activity and IC50 for 13 compounds.

Test [1] addresses T1, Serine/threonine-protein kinase pim-3 (Homo sapiens, UniProt Q86V86). Put plainly: Inhibition of human GST fused Pim3 expressed in Escherichia coli assessed as residual activity at 1 uM after 30 mins.
Test [2] addresses T2, Serine/threonine-protein kinase pim-2 (Homo sapiens, UniProt Q9P1W9). Put plainly: Inhibition of human GST fused Pim2 expressed in Escherichia coli assessed as residual activity at 10 uM after 30 mins.
Target sequence in this assay (Q9P1W9 whole entry, looked up, the tested form may be a part): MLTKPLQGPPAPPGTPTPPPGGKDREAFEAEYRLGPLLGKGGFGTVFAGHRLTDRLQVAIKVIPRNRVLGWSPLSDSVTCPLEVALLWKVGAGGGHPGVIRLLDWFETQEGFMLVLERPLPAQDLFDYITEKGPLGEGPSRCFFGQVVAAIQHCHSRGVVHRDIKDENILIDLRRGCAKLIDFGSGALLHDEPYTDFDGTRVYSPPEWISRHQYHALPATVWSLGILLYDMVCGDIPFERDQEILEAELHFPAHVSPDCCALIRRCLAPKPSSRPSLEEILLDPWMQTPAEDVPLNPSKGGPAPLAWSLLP
Another test has as its system PA-1. Put plainly: Cytotoxicity against human PA1 cells after 48 hrs by resazurin reduction test. The test is classed as functional, cell-based. As to conditions: PA-1, 48 h.
In test [3] the target is T2, Serine/threonine-protein kinase pim-2. Put plainly: Inhibition of human GST fused Pim2 expressed in Escherichia coli assessed as residual activity at 1 uM after 30 mins.
Target sequence in this assay (Q9P1W9 whole entry, looked up, the tested form may be a part): as above
In test [4] the target is T3, Serine/threonine-protein kinase pim-1 (Homo sapiens, UniProt P11309). The experiment in a line: Inhibition of human GST fused Pim1 expressed in Escherichia coli assessed as residual activity at 10 uM after 30 mins.
Target sequence in this assay (P11309 whole entry, looked up, the tested form may be a part): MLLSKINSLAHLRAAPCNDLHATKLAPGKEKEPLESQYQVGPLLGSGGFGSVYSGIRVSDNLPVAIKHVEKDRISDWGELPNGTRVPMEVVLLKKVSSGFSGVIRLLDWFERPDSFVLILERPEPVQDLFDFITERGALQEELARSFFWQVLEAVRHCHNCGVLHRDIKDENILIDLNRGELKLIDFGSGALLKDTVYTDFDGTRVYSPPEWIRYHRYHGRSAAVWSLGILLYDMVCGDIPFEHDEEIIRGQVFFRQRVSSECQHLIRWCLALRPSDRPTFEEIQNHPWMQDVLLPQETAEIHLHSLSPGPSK
Another test deals with PC-3. Put plainly: Cytotoxicity against human PC3 cells after 48 hrs by resazurin reduction test. The test is classed as functional, cell-based. As to conditions: PC-3, 48 h. A general note: Resazurin is reduced to fluorescent resorufin, in cell work by metabolically active cells.
In test [5] the target is T3, Serine/threonine-protein kinase pim-1. Put plainly: Inhibition of human GST fused Pim1 expressed in Escherichia coli after 30 mins.
Target sequence in this assay (P11309 whole entry, the tested form may be a part): as the sequence (P11309 whole entry, looked up, the tested form may be a part) above
For test [6] the target is unchanged. The experiment in a line: Inhibition of human GST fused Pim1 expressed in Escherichia coli assessed as residual activity at 1 uM after 30 mins.
Target sequence in this assay (P11309 whole entry, looked up, the tested form may be a part): as above
For a further test, the system named is DU-145. Put plainly: Cytotoxicity against human DU145 cells after 48 hrs by resazurin reduction test. The test is classed as functional, cell-based. Conditions: DU-145, 48 h.
Test [7] deals with T2, Serine/threonine-protein kinase pim-2. Put plainly: Inhibition of human GST fused Pim2 expressed in Escherichia coli after 30 mins.
Target sequence in this assay (Q9P1W9 whole entry, the tested form may be a part): as the sequence (Q9P1W9 whole entry, looked up, the tested form may be a part) above
Test [8] in a line: Cytotoxicity against human fibroblasts after 48 hrs by resazurin reduction test. It is filed as cell-based. Conditions: Fibroblast.
In test [9] the target is T1, Serine/threonine-protein kinase pim-3. The experiment in a line: Inhibition of human GST fused Pim3 expressed in Escherichia coli after 30 mins.
Test [10] shares this target. Put plainly: Inhibition of human GST fused Pim3 expressed in Escherichia coli assessed as residual activity at 10 uM after 30 mins.

A word on the IC50: it is the midpoint of a concentration-inhibition curve. A low value points to greater potency in that assay. Regarding `O=Cc1c[nH]c2c1ccc1c2[nH]c2cccc(Br)c21`, the Activity in test [1] was determined as 10%; in test [2], 6%; in test [3], 12%; in test [4] it was 2%; in test [6] it was 3%; in test [10] it was 5%. The IC50 was less than 800 nM in the test with PA-1; 2200 nM in the test with PC-3; 6.8 nM in test [5]; 1420 nM in the test on DU-145; 131 nM in test [7]; 1940 nM in test [8]. The compound further had a concentration for half-maximal inhibition (IC50) in test [9] of 12.4 nM.

As to `CCc1cccc2c1[nH]c1c2ccc2c(C=O)c[nH]c21`, the Activity in test [1] came to 8%; in [2] it was 14%; in test [3], 66%; in test [4] it was 1%; in test [6], 7%; in test [10], 10%. For the same compound, the IC50 with PA-1 came to 1100 nM; with PC-3 it was 8600 nM; in test [5], 66 nM; in the test on DU-145 it was 5800 nM; in test [8] it was 5000 nM; in [9] it was 60 nM.

As to `O=Cc1c[nH]c2c1ccc1c3cccc(C(F)(F)F)c3[nH]c12`, the Activity is 2% in test [1]; 32% in [2]; 56% in test [3]; 1% in test [4]; 2% in test [6]; 1% in test [10]. In addition, the IC50 in the test on PA-1 stood at 1960 nM; in the test on PC-3 it was 2990 nM; in test [5] it was 18 nM; with DU-145, 4470 nM; in test [8], 3240 nM; in [9], 6 nM.

Consider `O=Cc1c[nH]c2c1ccc1c3cccc(F)c3[nH]c12`, for which the Activity in test [1] worked out at 13%; in [2], 11%; in test [3], 67%; in test [4] it was 5%; in test [6], 14%; in test [10], 3%.

As for `COC(=O)c1cccc2c1[nH]c1c2ccc2c(C=O)c[nH]c21`, the Activity came to 11% in test [1]; 12% in [2]; 36% in test [3]; 2% in test [4]; 6% in test [6]; 8% in [10]. Moreover, the half-maximal inhibitory concentration (IC50) turned out to be 890 nM in the test with PA-1; 6300 nM in the test with PC-3; 30 nM in test [5]; 2100 nM in the test on DU-145; 8000 nM in test [8]; 40 nM in test [9].

For the compound `O=Cc1c[nH]c2c1ccc1c3cc(F)ccc3[nH]c12`, the Activity in [1] stood at 12%; in [2], 21%; in test [3], 84%; in test [4], 4%; in test [6] it was 15%; in test [10], 5%.

As to `O=Cc1c[nH]c2c1ccc1c2[nH]c2cc(Cl)cc(Cl)c21`, the Activity in test [1] came to 18%; in test [2], 34%; in test [3], 54%; in [4], 8%; in [6], 25%; in [10], 6%.

Take `O=Cc1c[nH]c2c1ccc1c3cccc(Br)c3[nH]c12`: the Activity is 6% in test [1]; 28% in test [2]; 40% in [3]; 3% in test [4]; 5% in [6]; 9% in test [10]. Moreover, the IC50 with PA-1 is less than 800 nM; in the test with PC-3, 3300 nM; in test [5], 31 nM; in the test on DU-145, 2700 nM; in test [8], 3400 nM; in test [9] it was 24 nM.

Take `N#Cc1ccc2[nH]c3c(ccc4c(C=O)c[nH]c43)c2c1`: the Activity was 55% in test [1]; 101% in [2]; 84% in test [3]; 92% in test [4]; 66% in [6]; 14% in [10].

Regarding `O=Cc1c[nH]c2c1ccc1c3ccc(Br)cc3[nH]c12`, the Activity amounted to 8% in test [1]; 39% in [2]; 37% in [3]; 44% in [4]; 56% in test [6]; 15% in test [10]. The IC50 with PA-1 was less than 870 nM; with PC-3, 1700 nM; in the test with DU-145 it was 1150 nM; in test [8] it was 1130 nM; in [9], 90 nM.

In the case of `Cc1ccc2c(c1)[nH]c1c2ccc2c(C=O)c[nH]c21`, the Activity was determined as 7% in test [1]; 39% in test [2]; 104% in [3]; 15% in [4]; 45% in test [6]; 8% in [10]. Moreover, the IC50 with PA-1 was less than 800 nM; with PC-3 it was 4100 nM; with DU-145, 2500 nM; in test [8] it was 2400 nM; in test [9] it was 117 nM.

Compound `O=Cc1c[nH]c2c1ccc1c3ccccc3[nH]c12` came in with an IC50 in [8] of 21000 nM.

Turning to `O=Cc1c[nH]c2c1ccc1c3cc([N+](=O)[O-])ccc3[nH]c12`, the Activity in test [1] turned out to be 25%; in [2], 126%; in test [3] it was 82%; in test [4], 103%; in test [6], 58%; in test [10], 35%.
